Measurements from patent publication US20080004200A1, “Enzyme stabilization” (priority 2006, published 2008).
Where a SMILES comes first, the peptide text is derived from it. The star is where a group is joined. Moc = COC(=O)*

System: Gram negative bacteria
Experiment: Gram negative cocktail challenge test in inoculated standard liquid laundry detergent
Assay type: cell-based
Conditions: inhibitor 0.004% by weight in standard liquid laundry detergent; for Count (log viable cells): stored at 35° C.
Method: To determine if a compound is capable of at least inhibiting the growth of at least one Gram negative bacteria in the liquid detergent the following test is performed.
A mixture of Gram negative bacteria, also known as a Gram negative cocktail or cocktail, is prepared. The Gram negative cocktail comprises a mixture of Pseudomonas aeruginosa ATCC 9027, Pseudomonas fluorescens ATCC 13525, Burkholderia (Pseudomonas) cepacia ATCC 25416, Klebsiella oxytoca ATCC 13182, Escherichia coli ATCC 8739, Citrobacter freundii ATCC 8090 and Serratia liquefaciens ATCC 27592. The Gram negative bacterial cocktail is prepared by growing each organism individually on plates containing a growth medium and picking isolated colonies for preparation of the Gram negative cocktail. The growth medium is TSA (tryptic soy agar, available from Becton Dickinson). TSA contains per liter water: 15 g pancreatic digest of casein, 5 g enzymatic digest of soy bean meal, 5 g sodium chloride, and 15 g agar with the pH adjusted to 7.3±0.2 using hydrochloric acid, HCL (J. T. Baker).
The individually selected colonies are added to sterilized saline and adjusted to a McFarland standard of #2 (Available from bioMerieux, Inc.) to prepare a standardized saline suspension for the organism. This is repeated for each organism individually, thereby by preparing a standardized saline suspension for each organism. An equal volume (1 ml) of each standardized saline suspension of the following cocktail members are mixed together: Pseudomonas aeruginosa ATCC 9027, Pseudomonas fluorescens ATCC 13525, Burkholderia (Pseudomonas) cepacia ATCC 25416, Klebsiella oxytoca ATCC 13182, Escherichia coli ATCC 8739, Citrobacter freundii ATCC 8090 and Serratia liquefaciens ATCC 27592.
An inoculated liquid laundry detergent is prepared by the addition to 49.5 ml of the standard liquid laundry detergent, described in Table A below, of 0.5 ml of the Gram negative bacterial cocktail as prepared above. This standard liquid laundry detergent also contains from about 0.00001% to about 5%, by weight of the composition, of one or more of the tripeptide enzyme inhibitors described herein.
As the cocktail contains approximately 10^7 to 10^8 cfu/ml (colony forming units/ml); the resulting inoculum level in the inoculated liquid laundry detergent is 10^5 to 10^6 cfu/ml. The inoculated liquid laundry detergent is stored at 35° C., a relative humidity of about 60% and at standard pressure, i.e. 1 atmosphere. Samples of Iml are removed from the inoculated liquid laundry detergent at the following times, 1 day, 2 days, 7 days, 14 days, 21 days and 28 days. These 1 ml samples, are immediately neutralized by addition to a neutralizer, namely polyvalent universal neutralizer (PVUN) which contains (per liter distilled water): 30 g Polysorbate 80 (Available under the brand Tween 80, from VWR International), 5 g Sodium thiosulfate, Ig L-Histidine, Ig Peptone, 8.5 g Sodium chloride, 14.3 g Lecithin with the pH adjusted to 7.0±0.2 with HCL.
Each neutralized sample is then subjected to a serial dilution, to the 10^−5 dilution to allow full enumeration of the surviving microbial population. For example, 1 ml of sample is added to 9 ml of PVUN, resulting in a 1:10 dilution, or 10^−1 dilution. A 1 ml sample of this 1:10 dilution is then added to another 9 ml PVUN, resulting in a 1:100 dilution, or 10^−2 dilution, and so on. Serial dilutions are carried out to 10^−5. 1.0 ml of the various dilutions (10^−1 or 10^−5) are then either spread or pour plated on TSA (tryptic soy agar, Becton Dickinson) and are then incubated for 72 hours at 35° C.±2° C.
After incubation, the plates are counted and recorded as cfu/ml survival vs. time (days 1, 2, 7, 14, 21, and 28 days). Results are recorded as log viable cells on specified sampling days. […]

COC(=O)N[C@H](C(=O)N[C@@H](C)C(=O)N[C@H](C=O)CC(C)C)C(C)C (Moc-Val-Ala-Leu-aldehyde)
Count (log viable cells) (Day 1, inoculum 10^5 to 10^6 cfu/ml): 4.7 log viable cells | Count (log viable cells) (Day 2): 4.0 log viable cells | Count (log viable cells) (Day 7): <0.1 log viable cells | Count (log viable cells) (Day 14): <0.1 log viable cells | Count (log viable cells) (Day 21): <0.1 log viable cells | Count (log viable cells) (Day 28): <0.1 log viable cells | Growth of Gram negative bacteria in liquid laundry detergents: prevents the growth of Gram negative bacteria
